As usually defined, the IC50 is the midpoint of a concentration-inhibition curve.

“Also recorded” adds a separate entry of the source. Structures can show the parent of a compound that is named as a salt. Where two headings read alike, the source gives them in different places.

Experiment [1] deals with T1, Thrombin (Homo sapiens, UniProt P00734).
T1 construct: purchased R&D
Kind of experiment: Kinetic progress curves (kapp, K1, KI*, mechanism). The format is biochemical. Conditions: for Ki / Thrombin kapp: mean ± SD; for Thrombin kapp: apparent second-order rate constant from progress curves; for Thrombin mechanism of inhibition: defined by the progress curves: slow-binding (Rev.) or irreversible (Irrev.). Here is the method: Because the compounds described in this paper were previously described as irreversible inhibitors, the IC50 value is inversely correlated with the second-order rate constant of inactivation. For a simple pseudo-first-order inactivation process, the activity after incubation with inhibitor (vi) varies with the inhibitor concentration (i), as described in the following equation: vi=v0·e^−kit where v0 is the activity in the absence of an inhibitor, k is the second-order rate constant of inactivation, and t is the time. The inactivation rate constant was determined from the time course of inhibition.
Kinetic assays were performed in the following manner. The inhibitor was mixed with the substrate, and the buffer solution with the enzyme was added at the time zero. The progress curves show the release of pNA or AMC as a function of time. Initially, no inhibitor is bound to the enzyme, and the tangent to the progress curve (dA/dt) is proportional to the free enzyme concentration. The free enzyme concentration decreases over time due to inhibitor binding kinetics, as described above. Progress curves were recorded in pseudo-first-order conditions ([I]0>>[E]0) and with less than 10% conversion of the substrate during the entire time course. In these conditions, dA/dt decreases exponentially with time. The progress curves were fitted with the integrated rate equation with GraFit7 to yield a value for kobs, a pseudo-first-order rate constant. At=Ao+vs∙t+vi−vs∙1−e^−kobs∙t/kobs where At is the absorbance at time t, A0 is the absorbance at time zero, vi is the initial rate and vs is the velocity at the steady-state.
The apparent second-order rate constant (kapp) was calculated from the slope of the linear part of the plot of kobs vs. the inhibitor concentration ([I]0). In the case of competition between the inhibitor and the substrate, kapp is smaller than the “real” second-order rate constant k discussed above because a certain fraction of the enzyme is present as an enzyme-substrate complex. kapp depends on the substrate concentration used in the experiment, as described by [Lambeir et al. (1996)].
The apparent equilibrium constants were obtained from the following equations, vi/vo=1/1+I/K1; vS/vo=1/1+I/KI* where vi is the initial rate, vs is the steady-state velocity and vo is the uninhibited initial rate.

The target in experiment [2] is T2, Neutrophil Elastase (recombinant neutrophil elastase) (Homo sapiens, UniProt P08246).
T2 construct: purchased Enzo LifeSciences
T2 sequence (P08246 30-267): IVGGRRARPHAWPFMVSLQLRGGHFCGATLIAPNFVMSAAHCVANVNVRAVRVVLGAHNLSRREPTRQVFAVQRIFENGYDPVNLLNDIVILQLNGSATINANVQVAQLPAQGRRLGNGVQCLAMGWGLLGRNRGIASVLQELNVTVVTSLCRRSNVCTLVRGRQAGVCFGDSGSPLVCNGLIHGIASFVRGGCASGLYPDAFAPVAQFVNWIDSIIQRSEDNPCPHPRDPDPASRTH
Kind of experiment: IC50 determination, spectrophotometric protease assay. The format is biochemical. Summed up:
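Enzymatic cleavage, with substrate at the Km, was recorded for 30 min at 37°C via chromogenic pNA or fluorogenic AMC release. A third experiment was added when SD exceeded three times the IC50.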

Setting [3] is: Thrombin K1, apparent equilibrium constant of the first step of slow-binding.
[4] abbreviates: Thrombin KI*, apparent equilibrium constant of the overall process.
The mark [5] stands for this setting: read-out: Thrombin K1, apparent equilibrium constant of the first step of slow-binding.
Where [6] appears, read: read-out: Thrombin KI*, apparent equilibrium constant of the overall process.

Regarding `C#CCCCOC(=O)NC(CCCNC(=N)N)P(=O)(Oc1ccccc1)Oc1ccccc1` (centres unmarked) [32b], the Ki in experiment [1] (setting [3]) was found to be 22.6 ± 5 µM. The Ki in experiment [1] (setting [4]) was 0.45 ± 0.03 µM. In addition, in experiment [1], the Thrombin kapp is 64 ± 8 M⁻¹ s⁻¹ and the “Thrombin mechanism of inhibition” value is recorded as “Rev”. The concentration for half-maximal inhibition (IC50) in experiment [2] was greater than 10 µM.

On to `C[C@@H]1NC(=O)N[C@@H]1CCCCCC(=O)NCCOCCOCCOCCn1cc(CCCOC(=O)NC(Cc2ccc(NC(=N)N)cc2)P(=O)(Oc2ccccc2)Oc2ccccc2)nn1` (stereo partly drawn) [50b, 3-(1-(18-((4R,5S)-5-methyl-2-oxoimidazolidin-4-yl)-13-oxo-3,6,9-trioxa-12-azaoctadecyl)-1H-1,2,3-triazol-4-yl)propyl (1-(diphenoxyphosphoryl)-2-(4-guanidinophenyl)ethyl)carbamate trifluoroacetate salt], for which the Ki in experiment [1] (setting [4]) turned out to be 1.55 ± 0.25 µM. In experiment [1], the Thrombin kapp was found to be 47 ± 5 M⁻¹ s⁻¹ and the “Thrombin mechanism of inhibition” value is recorded as “Rev”. Also, the half-inhibitory concentration (IC50) in experiment [2] was greater than 10 µM.

For the compound `CC(=O)Nc1ccc(OP(=O)(Oc2ccc(NC(C)=O)cc2)C(Cc2ccc(NC(=N)N)cc2)NC(=O)OCCCc2cn(CCOCCOCCOCCNC(=O)CCCCC[C@H]3NC(=O)N[C@H]3C)nn2)cc1` (some centres unmarked) [52b], the Ki in experiment [1] (setting [4]) was 0.62 ± 0.08 µM. Besides, in experiment [1], the Thrombin kapp is 49 ± 5 M⁻¹ s⁻¹ and the “Thrombin mechanism of inhibition” value is “Rev”. Moreover, the 50% inhibitory concentration (IC50) in experiment [2] is greater than 10 µM.

For `C#CCCCOC(=O)NC(C1CCN(C(=N)N)CC1)P(=O)(Oc1ccccc1)Oc1ccccc1` (centres unmarked) [41b], in experiment [1], the Thrombin kapp is listed as 41 × 10^2 ± 38 M^−1 s^−1 and the “Thrombin mechanism of inhibition” value was “irreversible inhibition; also recorded: Irrev”. Besides, the IC50 in experiment [2] was greater than 10 µM.

Take `C#CCCCOC(=O)NC(CCCNC(=N)N)P(=O)(Oc1ccc(Cl)cc1)Oc1ccc(Cl)cc1` (centres unmarked) [33b]: the Ki in experiment [1] (setting [3]) was determined as 4.13 ± 0.7 µM. The Ki in experiment [1] (setting [4]) came to 0.28 ± 0.04 µM. Further, in experiment [1], the Thrombin kapp is reported as 11 × 10^2 ± 42 M^−1 s^−1; the “Thrombin mechanism of inhibition” value is “reversible inhibition and Rev”.

Turning to `C[C@@H]1NC(=O)N[C@@H]1CCCCCC(=O)NCCOCCOCCOCCn1cc(CCCOC(=O)NC(CCCNC(=N)N)P(=O)(Oc2ccccc2)Oc2ccccc2)nn1` (some centres unmarked) [45b], the Thrombin kapp in experiment [1] worked out at 19 ± 2 M⁻¹ s⁻¹. Besides, in experiment [1], the “Thrombin mechanism of inhibition” value is recorded as “Rev”. The Ki in experiment [1] (setting [5]) was 9.97 ± 1 µM; in experiment [1] (setting [6]) it was 1.14 ± 0.11 µM.

For `C#CCCCOC(=O)NC(Cc1ccc(NC(=N)N)cc1)P(=O)(Oc1ccc(Cl)cc1)Oc1ccc(Cl)cc1` (centres unmarked) [36b], the Ki in experiment [1] (setting [3]) was determined as 9.03 ± 0.5 µM. The Ki in experiment [1] (setting [4]) was found to be 0.03 ± 0.002 µM. Besides, in experiment [1], the Thrombin kapp amounted to 251 ± 16 M⁻¹ s⁻¹ and the “Thrombin mechanism of inhibition” value is reported as “Rev”. For the same compound, the IC50 in experiment [2] was greater than 10 µM.

As to `C#CCCCOC(=O)NC(Cc1ccc(NC(=N)N)cc1)P(=O)(Oc1ccc(NC(C)=O)cc1)Oc1ccc(NC(C)=O)cc1` (centres unmarked) [35b], the Ki in experiment [1] (setting [3]) came to 32.7 ± 4 µM; in experiment [1] (setting [4]), 0.63 ± 0.04 µM. Further, in experiment [1], the Thrombin kapp was 128 ± 5 M⁻¹ s⁻¹. The “Thrombin mechanism of inhibition” value in experiment [1] was “Rev”. For the same compound, in experiment [2], the 50% inhibitory concentration (IC50) is greater than 10 µM.

On to `C#CCCCOC(=O)NC(Cc1ccc(NC(=N)N)cc1)P(=O)(Oc1ccccc1)Oc1ccccc1` (centres unmarked) [34b], for which the Ki in experiment [1] (setting [3]) is 134 ± 26 µM. Besides, the Ki in experiment [1] (setting [4]) stood at 4.93 ± 0.51 µM. In experiment [1], the Thrombin kapp turned out to be 17 ± 1 M⁻¹ s⁻¹ and the “Thrombin mechanism of inhibition” value was “Rev”. The IC50 in experiment [2] was greater than 10 µM.

Take `C#CCCCOC(=O)NC(c1ccc(NC(=N)N)cc1)P(=O)(Oc1ccccc1)Oc1ccccc1.O=C(O)C(F)(F)F` (centres unmarked) [37b, Pent-4-yn-1-yl ((diphenoxyphosphoryl)(4-guanidinophenyl)methyl)carbamate trifluoroacetate salt]: in experiment [2], the IC50 is greater than 10 µM.

Take `C[C@@H]1NC(=O)N[C@@H]1CCCCCC(=O)NCCOCCOCCOCCn1cc(CCCOC(=O)NC(Cc2ccc(NC(=N)N)cc2)P(=O)(Oc2ccc(Cl)cc2)Oc2ccc(Cl)cc2)nn1` (some centres unmarked) [54b]: the Ki in experiment [1] (setting [4]) is 0.06 ± 0.006 µM. The “Thrombin mechanism of inhibition” value in experiment [1] is given as “* ^d Rev”. The IC50 in experiment [2] was greater than 10 µM.

For the compound `C[C@@H]1NC(=O)N[C@@H]1CCCCCC(=O)NCCOCCOCCOCCn1cc(CCCOC(=O)NC(CCCNC(=N)N)P(=O)(Oc2ccc(Cl)cc2)Oc2ccc(Cl)cc2)nn1` (some centres unmarked) [46b], the Thrombin kapp in experiment [1] is listed as 63 × 10^2 ± 290 M^−1 s^−1. Also, the “Thrombin mechanism of inhibition” value in experiment [1] is “Rev”. Besides, the Ki in experiment [1] (setting [5]) was 0.95 ± 0.2 µM; in experiment [1] (setting [6]), 0.07 ± 0.009 µM.

For the origin of these results see article PMC9849758, “Chemically diverse activity-based probes with unexpected inhibitory mechanisms targeting trypsin-like serine proteases” (Frontiers in Chemistry, 2023).
